Assay [1] deals with LAT1. The note with it: experimental value, compared with MM-PBSA prediction.
The target in assay [2] is T1, recombinant human LAT1 (Homo sapiens, UniProt Q01650).
T1 construct: made in house; host or cells: E. coli
The experiment in a line: Inhibition of LAT1 mediated [3H]-His transport in proteoliposomes reconstituted with recombinant purified human LAT1. Type of assay: biochemical. Further details: Dose-response analysis, Mean / Dose-response analysis, single experiments: unit not given here. The settings on record: for % Residual Activity: 100 µM concentration, n = 3, Table S6; for Dose-response analysis, single experiments: Exp. 1, Exp. 2, Exp. 3 in this order; for Dose-response analysis, Mean: mean of Exp. 1-3. The procedure: All 30 compounds were evaluated for their potency to inhibit LAT1 mediated histidine transport in proteoliposomes reconstituted with recombinant purified human LAT1 (see Methods). […]
Human LAT1 was over-expressed in E. coli and was purified as previously described. In brief, solubilized cell lysate was centrifuged (12,000× g, 10 min, 4 °C); supernatant was applied on a His-Trap HP column (5 mL Ni Sepharose) connected to ÄKTA start system. The column was equilibrated with 10 mL buffer (20 mM Tris HCl pH 8.0, 10% glycerol, 200 mM NaCl, 0.1% sarkosyl) prior to supernatant application. The column was washed with 10 mL buffer (20 mM Tris HCl pH 8.0, 10% glycerol, 200 mM NaCl, 0.05% DDM, and 2 mM DTE) and the protein was eluted with the same buffer plus 400 mM imidazole. Purified protein was desalted, in order to remove imidazole, using a PD-10 column in a buffer containing 20 mM Tris HCl pH 8.0, 10% glycerol, 0.05% DDM and 10 mM DTE.
The purified human LAT1 was reconstituted by detergent removal approach using the batch-wise method, as previously described. In brief, the initial mixture contained: 4 μg of purified protein, 100 μL of 10% C12E8, 100 μL of 10% egg yolk phospholipids (w/v) in the form of liposomes that were prepared as previously described, 20 mM Tris HCl pH 7.5, and 10 mM L-His in a final volume of 700 μL. This mixture was incubated with 0.5 g of Amberlite XAD-4 for 90 min at 23 °C, 1200 rpm to retain detergent.
To perform transport assays, the external substrate was removed by gel filtration chromatography: 600 μL of proteoliposomes were passed through a Sephadex G-75 column (0.7 cm diameter × 15 cm height) pre-equilibrated with 20 mM Tris HCl pH 7.5 and a concentration of sucrose to balance internal osmolarity. Transport was started adding 5 μM [^3H]-His to proteoliposomes and stopped after 30 min according to the stop inhibitor method, as previously described. In brief, in controls 1.5 µM HgCl2 was added at time zero and radioactivity was subtracted to samples for calculating net transport. After stopping the transport reaction, 100 μL of proteoliposomes was subjected to gel filtration chromatography using a Sephadex G-75 column (0.6 cm diameter × 8 cm height), to separate the external from the internal radioactivity. Proteoliposomes were eluted with 1 mL 50 mM NaCl in 4 mL scintillation mixture and counted. […] Protein concentration was estimated by Chemidoc imaging system1 [104] to calculate the human LAT1 specific activity.

Assay [3] addresses T1, recombinant human LAT1. The settings on record: cited from earlier work.
For the next assay, the system named is cancer growth. The arrangement: method as in PMID 21187458, PMID 18520037, PMID 18813831. The settings on record: cited from earlier work.
Assay [4] concerns LAT1. The note with it: human colon cancer (HT-29) cells; cited from earlier work.
Assay [5] concerns LAT1. The settings on record: S2 cells; cited from earlier work.

The values below come from PMC6337383, “Discovery of Potent Inhibitors for the Large Neutral Amino Acid Transporter 1 (LAT1) by Structure-Based Methods” (International Journal of Molecular Sciences, 2018).

Where “and” joins values, the source holds several entries; their conditions need not be identical. Equal entries are not always repeated. Where two headings read alike, the source gives them in different places. Some results are limits rather than exact numbers.

T1 sequence (Q01650 whole entry): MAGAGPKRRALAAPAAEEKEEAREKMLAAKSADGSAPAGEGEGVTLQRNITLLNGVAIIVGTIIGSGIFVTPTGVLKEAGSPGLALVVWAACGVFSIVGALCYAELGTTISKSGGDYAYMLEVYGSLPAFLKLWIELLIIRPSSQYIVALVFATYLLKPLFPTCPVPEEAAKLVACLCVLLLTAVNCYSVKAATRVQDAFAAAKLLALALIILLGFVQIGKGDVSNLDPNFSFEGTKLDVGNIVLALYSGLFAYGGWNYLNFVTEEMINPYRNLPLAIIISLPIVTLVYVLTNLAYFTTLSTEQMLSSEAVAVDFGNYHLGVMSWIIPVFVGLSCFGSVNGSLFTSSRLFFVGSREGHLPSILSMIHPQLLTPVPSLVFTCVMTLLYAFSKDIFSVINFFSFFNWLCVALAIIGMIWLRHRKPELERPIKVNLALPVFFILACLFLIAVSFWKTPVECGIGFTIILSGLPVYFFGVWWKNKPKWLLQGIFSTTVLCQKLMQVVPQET

With `NC1(C(=O)O)CCc2ccccc2C1` (stereo not shown) [Compound 8, 2-Amino-1,2,3,4-tetrahydro-2-naphthoic acid], in the assay with LAT1 [1], the “times more potent than 10” value is on record as 9.
As to `NC1(C(=O)O)CC2CCC1C2` (stereo not shown) [Compound 1, 2-Amino-2-norbornanecarboxylic acid], the “% Residual Activity” value at recombinant human LAT1 [2] is given as 6.1%. For the same molecule, the IC50 (in general, the concentration that inhibits the measured activity by half) at recombinant human LAT1 [3] (same test system, determined previously) is 6800 ± 270 nM. Also, the “concentration required to attain antiproliferative effects” value in the assay with cancer growth is on record as over 10 mM.
With `FC(F)(F)Oc1ccc(/N=c2\ssnc2Cl)cc1` [Compound 3, (Z)-4-chloro-N-(4-(trifluoromethoxy)phenyl)-5H-1,2,3-dithiazol-5-imine], the “inhibition of human LAT1 reconstituted in proteoliposomes, in words” value at recombinant human LAT1 [3] is reported as “potent inhibition”.
In the case of `Nc1cc(COc2c(Cl)cc(C[C@H](N)C(=O)O)cc2Cl)c2oc(-c3ccccc3)nc2c1` [Compound 2], the IC50 with LAT1 [4] is 60 nM; with LAT1 [5], 140 nM.
For the molecule `N[C@@H](Cc1c[nH]c2ccc(OCc3ccccc3)cc12)C(=O)O` [Compound 42], the IC50 at recombinant human LAT1 [2] (5 μM [3H]-His, proteoliposomes containing 10 mM His, mean ± S.D., three experiments) stood at 1480 ± 270 nM. Also, the inhibition (as a rule, the change of the read-out against control, counted positive when it falls) at 100 µM on recombinant human LAT1 [2] (100 µM compound) is over 90%. On recombinant human LAT1 [2] (100 μM compound, [3H]-His uptake in proteoliposomes), the “LAT1 inhibition, activity in words” value was “almost complete inhibition”. Also, the “% Residual Activity” value at recombinant human LAT1 [2] came out at 7.83%. Also, the “Dose-response analysis, single experiments” value is 91.01 and 109.97 and 91.55 at recombinant human LAT1 [2] (0.1 [] M compound); 77.34 and 82.24 and 73.67 at recombinant human LAT1 [2] (0.2 [] M compound); 72.30 and 76.32 and 64.01 on recombinant human LAT1 [2] (0.5 [] M compound); 64.39 and 51.09 and 41.55 at recombinant human LAT1 [2] (1 [] M compound); 42.45 and 36.45 and 24.15 at recombinant human LAT1 [2] (2.5 [] M compound); 12.95 and 13.71 and 13.30 at recombinant human LAT1 [2] (50 [] M compound). Further, the “Dose-response analysis, Mean” value at recombinant human LAT1 [2] (0.1 [] M compound) is given as 97.51; on recombinant human LAT1 [2] (0.2 [] M compound), 77.75; on recombinant human LAT1 [2] (0.5 [] M compound) it was 70.88; at recombinant human LAT1 [2] (1 [] M compound), 52.34; at recombinant human LAT1 [2] (2.5 [] M compound) it was 34.35; on recombinant human LAT1 [2] (5 [] M compound), 29.11. For the same molecule, the “Dose-response analysis, Mean” value is on record as 18.24 at recombinant human LAT1 [2] (10 [] M compound), 21.07 at recombinant human LAT1 [2] (25 [] M compound), 13.32 at recombinant human LAT1 [2] (50 [] M compound) and 14.52 on recombinant human LAT1 [2] (100 [] M compound). The “times more potent than 1” value on recombinant human LAT1 [2] (ratio of IC50 values versus 1 (BCH)) is recorded as “~four times more potent”.
